Measured values: the NIST ThermoML archive (doi:10.1021/je8009418)
Numbers after ± are expanded uncertainties.

Details: Liquid; for speed of sound: Pulse-echo method; for mass density: Vibrating tube method

CCC(C)(C)O [2-methylbutan-2-ol]
Details | mass density [kg/m3] | speed of sound [m/s]
292.86 K, 15200 kPa | – | 1290.8 ± 2.3
292.86 K, 30390 kPa | – | 1369.7 ± 2.4
292.86 K, 45590 kPa | – | 1440.9 ± 2.4
292.86 K, 60790 kPa | – | 1506 ± 2.5
292.86 K, 75990 kPa | – | 1566.1 ± 2.5
292.86 K, 91180 kPa | – | 1623.1 ± 2.6
292.86 K, 101320 kPa | – | 1658.5 ± 2.6
292.9 K, 100 kPa | – | 1196.7 ± 1.6
293.15 K, 101.33 kPa | 808.891 ± 0.24 | –
298.15 K, 101.33 kPa | 804.3 ± 0.24 | 1177.8 ± 1.6
298.15 K, 15200 kPa | – | 1274.2 ± 2.4
298.15 K, 30390 kPa | – | 1354.4 ± 2.4
298.15 K, 45590 kPa | – | 1426.3 ± 2.4
298.15 K, 60790 kPa | – | 1491.5 ± 2.5
298.15 K, 75990 kPa | – | 1551.9 ± 2.5
298.15 K, 91180 kPa | – | 1608.7 ± 2.6
298.15 K, 101320 kPa | – | 1644.4 ± 2.6
298.17 K, 100 kPa | – | 1177.8 ± 1.6
303.13 K, 30390 kPa | – | 1339.7 ± 2.4
303.13 K, 45590 kPa | – | 1412.3 ± 2.4
303.13 K, 91180 kPa | – | 1595.6 ± 2.6
303.13 K, 101320 kPa | – | 1631.4 ± 2.6
303.14 K, 15200 kPa | – | 1258.5 ± 2.4
303.14 K, 60790 kPa | – | 1478.1 ± 2.5
303.14 K, 75990 kPa | – | 1538.6 ± 2.5
303.15 K, 100 kPa | – | 1159.8 ± 1.6
303.16 K, 101.33 kPa | 799.66 ± 0.24 | –
308.12 K, 100 kPa | – | 1141.9 ± 1.6
308.12 K, 15200 kPa | – | 1242.6 ± 2.4
308.12 K, 30390 kPa | – | 1324.9 ± 2.4
308.12 K, 45590 kPa | – | 1398 ± 2.4
308.12 K, 60790 kPa | – | 1464.7 ± 2.5
308.12 K, 75990 kPa | – | 1525.6 ± 2.5
308.12 K, 91180 kPa | – | 1582.6 ± 2.6
308.12 K, 101320 kPa | – | 1619 ± 2.6
308.16 K, 101.33 kPa | 794.954 ± 0.24 | –
313.1 K, 100 kPa | – | 1124 ± 1.6
313.1 K, 45590 kPa | – | 1384.1 ± 2.4
313.1 K, 60790 kPa | – | 1451.2 ± 2.5
313.1 K, 75990 kPa | – | 1512.8 ± 2.5
313.1 K, 91180 kPa | – | 1569.9 ± 2.6
313.11 K, 15200 kPa | – | 1226.6 ± 2.4
313.11 K, 30390 kPa | – | 1310.1 ± 2.4
313.11 K, 101320 kPa | – | 1606.2 ± 2.6
313.15 K, 101.33 kPa | 790.176 ± 0.24 | –
318.15 K, 101.33 kPa | 785.312 ± 0.24 | –
318.18 K, 15200 kPa | – | 1210.4 ± 2.4
318.18 K, 60790 kPa | – | 1437.9 ± 2.5
318.18 K, 75990 kPa | – | 1499.8 ± 2.5
318.18 K, 101320 kPa | – | 1593.9 ± 2.6
318.19 K, 30390 kPa | – | 1295.2 ± 2.4
318.19 K, 45590 kPa | – | 1370.1 ± 2.4
318.19 K, 91180 kPa | – | 1557.2 ± 2.6
318.29 K, 100 kPa | – | 1105.3 ± 1.6
